Tests used:
[1] = tested on: prostate adenocarcinoma with metastases; test: Individual curative trial, SPECT-CT, Lutetium-177 labeled compound (Case 1); assay type: in vivo, human; conditions: patient, radiolabeled with Lutetium-177
Method: The compound PSMA-ALB-06, radiolabeled with therapeutic radionuclide Lutetium-177 was used in the scope of an individual curative trial in a patient with mildly differentiated prostate adenocarcinoma with extensive bilobar liver metastases, as well as disseminated osteoblastic metastases (in the pelvic region), and polytopic voluminous lymph node metastases. The evaluation of the biodistribution and in vivo behavior of the radiolabeled compound PSMA-ALB-06 was performed by means of SPECT-CT measurements.
The SPECT-CT visualization was performed at different time points up to 46 hours post injection (p.i.). […] The blood clearance is completed within first hours, whereas the unspecific uptake in healthy organs (especially liver, salivary and kidney) remains moderate over the time.

[2] = tested on: metastatic castration-resistant prostate cancer; test: Individual curative trial, PET-CT, Gallium-68 labeled compound (Case 2); assay type: in vivo, human; conditions: patient; radiolabeled with Gallium-68
Excerpt: The compound PSMA-ALB-06, radiolabeled with a positron emitting radionuclide Gallium-68 was used in an individual curative trial in a patient with metastatic castration-resistant prostate cancer as a diagnostic agents for PET-CT. […] The high contrast of the images increases over the time after injection confirming the prolonged blood clearance and high specific uptake in the tumors.

Cc1ccc(CCCC(=O)NCCCCC(NC(=O)CN2CCN(CC(=O)O)CCN(CC(=O)O)CCN(CC(=O)O)CC2)C(=O)NCC2CCC(C(=O)NC(Cc3ccc4ccccc4c3)C(=O)NCCCCC(NC(=O)NC(CCC(=O)O)C(=O)O)C(=O)O)CC2)cc1 (stereo not drawn) [PSMA-ALB-06] was tested, and the “uptake in malignant tissues (SPECT-CT)” value [1] was “substantial specific uptake of the radiolabeled compound in malignant tissues”, the “blood circulation and bioavailability” value ([1]; up to 46 hours p.i.) was “prolonged blood circulation and improved bioavailability” and the “visualization of malignant tissues (PET)” value [2] was “Malignant tissues could be visualized by means of PET with high specificity”.

Source: patent publication US11629201B2, “PSMA-binding agents and uses thereof” (ITM Isotope Technologies Munich SE, priority 2017, dated 2023)
